Experimental data: US20020004632A1 (priority 2000, published 2002)

Assays:
[1] = system: Rat hippocampal CA1 neurons; assay: Spine morphology of transfected neurons in cultured hippocampal brain slices, 2PLSM imaging and automatic spine analysis algorithm; assay type: cell-based; details: biollistic cotransfection with GFP; compared to the GFP control; at least 5 neurons per group
Procedure: Cultured hippocampal brain slices were prepared from 7 day old rats. After five days in vitro a small subset of neurons were biollistically transfected (for example, Lo, et al., (1994). Neuronal transfection in brain slices using particle-mediated gene transfer, Neuron 13, 1263-1268, the contents of which are hereby incorporated by reference) with a plasmid carrying the gene for enhanced green fluorescent protein (GFP) (commercially available from Clonetech) At least two days after transfection, slices were transferred to a perfusion chamber for imaging. Labeled neurons were identified and imaged using a custom-made 2PLSM laser scanning microscope (as described in Mainen, Z. F., Maletic-Savatic, M., Shi, S. H., Hayashi, Y., Malinow, R., and Svoboda, K. (1999), Two-photon imaging in living brain slices, Methods 18, 231-239, the contents of which are hereby incorporated by reference). The light source was a Ti:sapphire laser running at a wavelength of ≈990 nm (repetition frequency 80 MHz; pulse length 150 fs). The average power delivered to the backfocal plane of the objective (40x, NA 0.8) varied depending on the imaging depth (range 30 to 150 mW). Fluorescence was detected in whole-field detection mode with a photomultiplier tube.
mTOR kinase controls the phosphorylation of the translation regulators p70^56k and 4E-BP1. […]

dendritic spines [2] = details: low levels; cited from earlier work
dendritic spines [3] = details: low levels; cited from earlier work; remark: listed apart in the source

Molecule: mTOR wt: wild-type mTOR kinase expressed from a plasmid transfected by biollistic gene transfer
- spine density [1]: increased

Molecule: Cc1onc(O)c1CC(N)C(=O)O (stereo not drawn) [AMPA, alpha-amino-3-hydroxy-5-methyl-4-isoxalone]
- actin-based spine motility (dendritic spines [2]): abolished
- lesion-induced spine degeneration (dendritic spines [3]): block

Molecule: N[C@@H](CCC(=O)O)C(=O)O [glutamate]
- actin-based spine motility (dendritic spines [2]): abolished
